Experimental data from patent publication US10899737B2, “Piperazine carbamates and methods of making and using same” (Lundbeck La Jolla Research Center, Inc., priority 2016, dated 2021).

Key:
MAGL [1] = biological target: T1, MAGL (Homo sapiens, UniProt Q99685); assay: In vitro competitive activity-based protein profiling (human), MAGL; format: biochemical; settings: for inhibition at 1 µM: 1 μM inhibitor, human proteome, 30 min preincubation at 37° C, read-out: MAGL % inh. 1 μM (human); for IC50: human PC3
T1 construct: Proteomes (human prefrontal cortex or cell membrane fractions); from tissue
T1 sequence (Q99685 1-303): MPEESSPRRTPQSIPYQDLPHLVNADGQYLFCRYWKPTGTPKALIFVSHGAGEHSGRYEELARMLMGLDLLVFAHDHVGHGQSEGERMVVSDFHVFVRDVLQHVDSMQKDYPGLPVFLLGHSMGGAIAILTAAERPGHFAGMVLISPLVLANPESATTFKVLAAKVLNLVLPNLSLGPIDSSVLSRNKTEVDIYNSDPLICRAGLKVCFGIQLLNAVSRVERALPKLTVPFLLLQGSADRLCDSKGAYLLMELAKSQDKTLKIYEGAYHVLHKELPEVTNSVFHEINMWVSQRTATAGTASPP
Experimental: (§1) In Vitro Competitive Activity-Based Protein Profiling (Human).
(§2) Proteomes (human prefrontal cortex or cell membrane fractions) (50 μL, 1.0-2.0 mg/mL total protein concentration) were preincubated with varying concentrations of inhibitors at 37° C. After 30 min, FP-Rh or JW912 (1.0 μL, 50 μM in DMSO) was added and the mixture was incubated for another 30 min at room temperature. Reactions were quenched with SDS loading buffer (15 μL-4×) and run on SDS-PAGE. Following gel imaging, serine hydrolase activity was determined by measuring fluorescent intensity of gel bands corresponding to MAGL and ABHD6 using ImageJ 1.49 k software.

ABHD6 [2] = biological target: T2, ABHD6 (Mus musculus, UniProt Q8R2Y0); assay: In vitro competitive activity-based protein profiling (mouse), ABHD6; format: biochemical; settings: 1 μM inhibitor, mouse brain membrane fraction or cell lysates; read-out: ABHD6 % inh. 1 μM (mouse)
T2 construct: Proteomes (mouse brain membrane fraction or cell lysates); from tissue; host or cells: mouse brain membrane fraction or cell lysates
T2 sequence (Q8R2Y0 1-336): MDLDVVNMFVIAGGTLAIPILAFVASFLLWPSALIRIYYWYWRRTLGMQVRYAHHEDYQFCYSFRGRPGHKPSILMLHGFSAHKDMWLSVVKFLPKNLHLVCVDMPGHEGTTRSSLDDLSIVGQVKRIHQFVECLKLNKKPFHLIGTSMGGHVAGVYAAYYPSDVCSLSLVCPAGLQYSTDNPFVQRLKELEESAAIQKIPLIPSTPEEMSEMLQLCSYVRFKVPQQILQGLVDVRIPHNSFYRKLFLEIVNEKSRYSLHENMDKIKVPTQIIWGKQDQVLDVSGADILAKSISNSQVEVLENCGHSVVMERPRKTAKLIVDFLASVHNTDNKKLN
Experimental: (§3) In Vitro Competitive Activity-Based Protein Profiling (Mouse).
(§4) Proteomes (mouse brain membrane fraction or cell lysates) (50 μL, 1.0 mg/mL total protein concentration) were preincubated with varying concentrations of inhibitors at 37° C. After 30 min, FP-Rh (1.0 μL, 50 μM in DMSO) was added and the mixture was incubated for another 30 min at 37° C. Reactions were quenched with SDS loading buffer (50 μL-4×) and run on SDS-PAGE. Following gel imaging, serine hydrolase activity was determined by measuring fluorescent intensity of gel bands corresponding to MAGL and ABHD6 using ImageJ 1.49 k software. Data from this assay is shown in Table 1 (% inhibition at 1 μM).

ABHD6 [3] = biological target: T3, ABHD6 (Homo sapiens, UniProt Q9BV23); assay: In vitro competitive activity-based protein profiling (human), ABHD6; format: biochemical; settings: human PC3
T3 construct: Proteomes (human prefrontal cortex or cell membrane fractions); endogenous in cells; human prefrontal cortex
T3 sequence (Q9BV23 1-337): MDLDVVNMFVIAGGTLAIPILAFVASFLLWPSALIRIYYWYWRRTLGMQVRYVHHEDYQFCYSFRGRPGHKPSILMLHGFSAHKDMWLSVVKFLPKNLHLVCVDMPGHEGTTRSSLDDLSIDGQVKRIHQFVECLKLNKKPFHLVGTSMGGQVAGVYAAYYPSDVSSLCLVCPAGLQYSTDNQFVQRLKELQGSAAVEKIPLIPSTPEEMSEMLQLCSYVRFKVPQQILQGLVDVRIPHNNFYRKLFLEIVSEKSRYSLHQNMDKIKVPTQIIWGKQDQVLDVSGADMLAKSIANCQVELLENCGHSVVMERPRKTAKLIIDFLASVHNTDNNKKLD
Experimental: as §1, §2

MAGL [4] = biological target: T4, MAGL (Mus musculus, UniProt O35678); assay: Mouse brain proteomes from inhibitor treated mice, MAGL inhibition; format: in vivo; settings: 5 mg/kg oral gavage, C57Bl/6J mouse brain, 4 h following administration; read-out: MAGL % inh. 5 mg/kg (mouse)
T4 construct: Proteomes (mouse brain membrane fraction or cell lysates); from tissue; host or cells: mouse brain membrane fraction or cell lysates
T4 sequence (O35678 1-303): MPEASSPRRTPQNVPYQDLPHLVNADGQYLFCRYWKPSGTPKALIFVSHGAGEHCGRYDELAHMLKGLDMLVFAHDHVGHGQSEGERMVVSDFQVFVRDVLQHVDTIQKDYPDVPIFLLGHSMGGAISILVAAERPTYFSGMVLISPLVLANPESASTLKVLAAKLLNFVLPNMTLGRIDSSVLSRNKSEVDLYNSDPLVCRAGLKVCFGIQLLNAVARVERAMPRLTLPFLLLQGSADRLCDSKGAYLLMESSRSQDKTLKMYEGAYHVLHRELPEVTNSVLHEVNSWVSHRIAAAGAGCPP
Experimental: Preparation of Mouse Brain Proteomes from Inhibitor Treated Mice.
Inhibitors were administered to wild-type C57Bl/6J by oral gavage in a vehicle of polyethylene glycol. Each animal was sacrificed 4 h following administration and brain proteomes were prepared and analyzed according to previously established methods (See Niphakis, M. J., et al. (2011) ACS Chem. Neurosci. and Long, J. Z., et al. Nat. Chem. Biol. 5:37-44).

MAGL [5] = biological target: T4, MAGL; assay: In vitro competitive activity-based protein profiling (mouse), MAGL; format: biochemical; settings: for inhibition at 1 µM: 1 μM inhibitor, mouse brain membrane fraction or cell lysates, read-out: MAGL % inh. 1 μM (mouse); for IC50: mouse proteome
Experimental: as §3, §4

Row | SMILES | inhibition at 1 µM (MAGL [1]) [%] | IC50 (MAGL [1]) [µM] | inhibition at 1 µM (ABHD6 [2]) [%] | IC50 (ABHD6 [3]) [µM] | inhibition at 5 mg/kg (MAGL [4]) [%] | inhibition at 1 µM (MAGL [5]) [%] | IC50 (MAGL [5]) [µM]
1 | O=C(O)CN1CCC(c2cc(C(F)(F)F)ccc2CN2CCN(C(=O)OC(C(F)(F)F)C(F)(F)F)CC2)C1 (stereo not shown) [Example 2, 2-(3-(2-((4-(((1,1,1,3,3,3-Hexafluoropropan-2-yl)oxy)carbonyl)piperazin-1-yl)methyl)-5-(trifluoromethyl)phenyl)pyrrolidin-1-yl)acetic Acid] | ≥ 75 | ≤ 0.1 | 0 to 25 | 1 to 10 | 50 to 75 | ≥ 75 | –
2 | O=C(O)Cn1ccc(-c2cc(C(F)(F)F)ccc2CN2CCN(C(=O)OC(C(F)(F)F)C(F)(F)F)CC2)n1 [Example 3, 2-(3-(2-((4-(((1,1,1,3,3,3-Hexafluoropropan-2-yl)oxy)carbonyl)piperazin-1-yl)methyl)-5-(trifluoromethyl)phenyl)-1H-pyrazol-1-yl)acetic Acid] | ≥ 75 | ≤ 0.1 | ≥ 75 | 0.1 to 1 | 0 to 25 | ≥ 75 | ≤ 0.1
3 | O=C(OC(C(F)(F)F)C(F)(F)F)N1CCN(Cc2ccc(C(F)(F)F)cc2C2(C(=O)O)CCCC2)CC1 [Example 4, 1-(2-((4-(((1,1,1,3,3,3-Hexafluoropropan-2-yl)oxy)carbonyl)piperazin-1-yl)methyl)-5-(trifluoromethyl)phenyl)cyclopentane-1-carboxylic Acid] | ≥ 75 | ≤ 0.1 | 0 to 25 | 1 to 10 | ≥ 75 | ≥ 75 | ≤ 0.1
4 | CCC(C(=O)O)n1cc(-c2cc(C(F)(F)F)ccc2CN2CCN(C(=O)OC(C(F)(F)F)C(F)(F)F)CC2)cn1 (stereo not shown) [Example 5, 2-(4-(2-((4-(((1,1,1,3,3,3-Hexafluoropropan-2-yl)oxy)carbonyl)piperazin-1-yl)methyl)-5-(trifluoromethyl)phenyl)-1H-pyrazol-1-yl)butanoic Acid] | ≥ 75 | ≤ 0.1 | ≥ 75 | 0.1 to 1 | 0 to 25 | ≥ 75 | –
5 | O=C(O)Cn1cc(-c2cc(C(F)(F)F)ccc2CN2CCN(C(=O)OC(C(F)(F)F)C(F)(F)F)CC2)cn1 [Example 6, 2-(4-(2-((4-(((1,1,1,3,3,3-Hexafluoropropan-2-yl)oxy)carbonyl)piperazin-1-yl)methyl)-5-(trifluoromethyl)phenyl)-1H-pyrazol-1-yl)acetic Acid] | ≥ 75 | ≤ 0.1 | ≥ 75 | 1 to 10 | 0 to 25 | ≥ 75 | ≤ 0.1
6 | O=C(O)CN1CCN(c2cc(C(F)(F)F)ccc2CN2CCN(C(=O)OC(C(F)(F)F)C(F)(F)F)CC2)CC1 [Example 42] | ≥ 75 | – | 0 to 25 | – | 25 to 50 | ≥ 75 | ≤ 0.1
7 | O=C(O)C1COCCN1c1cc(CN2CCN(C(=O)OC(C(F)(F)F)C(F)(F)F)CC2)cc(C(F)(F)F)c1 (stereo not shown) [Example 68, 4-(3-((4-(((1,1,1,3,3,3-hexafluoropropan-2-yl)oxy)carbonyl)piperazin-1-yl)methyl)-5-(trifluoromethyl)phenyl)morpholine-3-carboxylic acid] | ≥ 75 | ≤ 0.1 | ≥ 75 | 0.1 to 1 | – | ≥ 75 | –
8 | N#Cc1ccc(CN2CCN(C(=O)OC(C(F)(F)F)C(F)(F)F)CC2)c(N2CCC(C(=O)O)CC2)c1 [Example 69, 1-(5-cyano-2-((4-(((1,1,1,3,3,3-hexafluoropropan-2-yl)oxy)carbonyl)piperazin-1-yl)methyl)phenyl)piperidine-4-carboxylic acid] | ≥ 75 | ≤ 0.1 | 0 to 25 | 0.1 to 1 | – | ≥ 75 | –
9 | O=C(O)C1COCCN1c1cc(C(F)(F)F)ccc1CN1CCN(C(=O)OC(C(F)(F)F)C(F)(F)F)CC1 (stereo not shown) [Example 71, 4-(2-((4-(((1,1,1,3,3,3-hexafluoropropan-2-yl)oxy)carbonyl)piperazin-1-yl)methyl)-5-(trifluoromethyl)phenyl)morpholine-3-carboxylic acid] | ≥ 75 | 0.1 to 1 | 0 to 25 | 1 to 10 | – | ≥ 75 | –
10 | O=C(O)C1CCN(c2cc(C(F)F)ccc2CN2CCN(C(=O)OC(C(F)(F)F)C(F)(F)F)CC2)CC1 [Example 72, 1-(5-(difluoromethyl)-2-((4-(((1,1,1,3,3,3-hexafluoropropan-2-yl)oxy)carbonyl)piperazin-1-yl)methyl)phenyl)piperidine-4-carboxylic acid] | ≥ 75 | ≤ 0.1 | ≥ 75 | 1 to 10 | – | ≥ 75 | –
11 | O=C(O)C1CCN(c2cc(F)ccc2CN2CCN(C(=O)OC(C(F)(F)F)C(F)(F)F)CC2)CC1 [Example 73, 1-(5-fluoro-2-((4-(((1,1,1,3,3,3-hexafluoropropan-2-yl)oxy)carbonyl)piperazin-1-yl)methyl)phenyl)piperidine-4-carboxylic acid] | ≥ 75 | ≤ 0.1 | 50 to 75 | 1 to 10 | – | ≥ 75 | –
12 | O=C(O)[C@H]1CCCN(c2cc(C(F)(F)F)ccc2CN2CCN(C(=O)OC(C(F)(F)F)C(F)(F)F)CC2)C1 [Example 80, (S)-1-(2-((4-(((1,1,1,3,3,3-hexafluoropropan-2-yl)oxy)carbonyl)piperazin-1-yl)methyl)-5-(trifluoromethyl)phenyl)piperidine-3-carboxylic acid] | ≥ 75 | ≤ 0.1 | 25 to 50 | 0.1 to 1 | – | ≥ 75 | –
13 | O=C(O)[C@H]1CCCN(c2cc(CN3CCN(C(=O)OC(C(F)(F)F)C(F)(F)F)CC3)cc(C(F)(F)F)c2)C1 [Example 81, (S)-1-(3-((4-(((1,1,1,3,3,3-hexafluoropropan-2-yl)oxy)carbonyl)piperazin-1-yl)methyl)-5-(trifluoromethyl)phenyl)piperidine-3-carboxylic acid] | ≥ 75 | ≤ 0.1 | ≥ 75 | 0.1 to 1 | – | ≥ 75 | –
